Results from patent US20080008999A1, “Process for detecting the existence of mesenchymal chrondrosarcoma” (priority 2004, published 2008).
Counter-ions that a name gives are not always drawn.

Experiments:
K562 tumor cells = assay: KOR assay, optical density versus time of cell cultures (FIG. 13); type: cell-based
Description: Referring again to FIG. 6, and in the preferred embodiment depicted therein, a 96 well microtiter dish 310 is preferably used, and a light source 312 shines light through the samples disposed in such dish. The light source preferably provides light with a wavelength of from 200 about 800 nanometers. In one embodiment, the wavelength provided by the light source is from about 300 to about 700 nanometers. In yet another embodiment, the wavelength provided by the light source is from about 340 to about 660 nanometers.
Referring again to FIG. 6, and in the preferred embodiment depicted therein, the transmittance values measured by sensor 314 may be converted into optical density values in accordance with the formula: Dw=-log10Tw, wherein Tw is the measured transmittance of the sample measured at the specified wavelength (w) of the light used, and Dw is the optical density of the sample at the specified wavelength of the light used.
Thus, applicant's process allows one to measure the true optical density of a sample rather than mere absorbance. Once such optical density has been measured, one can then plot optical density versus time (as illustrated in the Figures of U.S. Pat. No. 6,258,553) and obtain a true rather than a distorted indication of cell apoptosis. […]

[1] = test system: epithelial carcinoma cells; assay: exposure of cells to radiolabeled lineage specific hormones (FIG. 19); type: cell-based
Description: FIG. 19 is a representation of the results of exposing cells to various lineage specific hormones. […] Reference may be had to U.S. Pat. No. 6,565,827 (radioimmunotherapy of lymphoma using anti-CD20 antibodies), U.S. Pat. No. 6,287,537 (radioimmunotherapy of lymphoma using anti-CD20 antibodies), U.S. Pat. No. 6,015,542 (radioimmunotherapy of lymphoma using anti-CD20 antibodies), and U.S. Pat. No. 5,843,398 (radioimmunotherapy of lymphoma using anti-CD 20 antibodies). The entire disclosure of these United States patents are hereby incorporated by reference into this specification. […] In another embodiment (see graph 1300) epithelial cells, 1310, and ovarian cancer cells, 1320, are exposed to radiolabeled estrogen. Over 90 percent of the ovarian cancer cells are killed upon exposure to the radiolabeled estrogen but less than 30 percent of the epithelial carcinoma cells are killed upon exposure.

| Molecule | slope of optical density versus time relative to control slope (K562 tumor cells; K562 tumor cells derived from a patient with chronic myelogenous leukemia) | apoptosis peak in the KOR assay (K562 tumor cells; optical density versus time) | epithelial carcinoma cells killed upon exposure [1] |
| --- | --- | --- | --- |
| Cc1ccc(NC(=O)c2ccc(CN3CCN(C)CC3)cc2)cc1Nc1nccc(-c2cccnc2)n1 [imatinib mesylate] | dose-dependent decrease in slope | do not produce |  |
| radiolabeled epithelial growth factor: radiolabeled ligand used to kill cells that possess receptors for the particular ligand (NSDSECPLSHDGYCLHDGVCMYIEALDKYACNCVVGYIGERCQYRDLKWWELR; Epidermal growth factor radiolabel; UniProt P01133 971-1023, looked up) |  |  | more than 50% |
